The values that follow are results of earlier work, collected in patent US20230104323A1, “FORMULATIONS OF POLYBASIC DRUGS TO REDUCE MULTI-ORGAN TOXICITY” (priority 2019, published 2023).

Molecules are shown by their SMILES.

The data set has as its system healthy subjects. To be noted: plazomicin injection.

Turning to `CN[C@@H]1[C@@H](O)[C@@H](O[C@@H]2[C@@H](O)[C@H](O[C@H]3OC(CNCCO)=CC[C@H]3N)[C@@H](N)C[C@H]2NC(=O)[C@@H](O)CCN)OC[C@]1(C)O` [plazomicin], the “Nephrotoxicity and ototoxicity in humans” value was “no nephrotoxicity and ototoxicity”.
